Test results from PMC6821791, “Phase I Trial of Pyragrel, a Novel Thromboxane Synthetase Inhibitor, to Evaluate the Safety, Tolerability, and Pharmacokinetics in Healthy Volunteers” (Frontiers in Pharmacology, 2019).

Assays:
Type in all cases: in vivo, human
[1] = Part V prolonged 24 h infusion study, plasma pharmacokinetics; settings: for AUCINF / AUClast / Cl / Cmax / Tmax / Vz / t1/2: continuous i.v. infusion of pyragrel 360 mg within 24 h, plasma, n=4, mean ± SD
Experimental: (§1) Pyragrel administration regimens are as follows: In the single-escalating-dose study (Part I), a total of 52 subjects are enrolled to receive one of three treatments (pyragrel, ozagrel, or placebo, diluted in 500 Ml normal saline) as a 3-h i.v. infusion. Six dose levels of pyragrel (30, 60,120, 180, 240, 300 mg) were intravenously infused to healthy subjects. Of the 12 subjects each at the first three dose groups (30, 60, and 120 mg), 8 received pyragrel, 2 received ozagrel (80 mg), and 2 received placebo. Eight subjects were assigned as 4/2/2 for pyragrel, ozagrel, and placebo at the 180 mg level. Only four subjects were enrolled at the 240- and 300-mg group each; all received pyragrel. […] In the saline-volume-changed study (Part II), the safety and pharmacokinetics of pyragrel were assessed by decreasing the volume of dilution saline. Four subjects received a single 3 h infusion of pyragrel 240 mg diluted in 250 ml saline instead of the 500 ml used in Part I. Blood samples were collected at multiple time points before and after the initiation of the infusion in Part I and Part II; 15 blood samples were predetermined as follows: before drug administration (time 0), 0.5, 1, 2, 3 (4 samples collected during infusion), 3.25, 3.5, 4, 5, 7, 9, 11, 15, 24, and 48 h (10 samples collected post infusion) after the initiation of the infusion. In the multiple-dose study (Part III), 12 subjects received a single 3 h infusion of 180 mg pyragrel (diluted in 250 ml saline) on Day 1 and Day 6 and twice 3 h infusion of 180 mg pyragrel from Day 2 to 5; 14 blood samples were collected on Day 1 and Day 6 before drug administration (0 h), 0.5, 1, 2, 3, 3.25, 3.5, 4, 5, 7, 9, 11, 15, 24 h after the initiation of the infusion; moreover, 5 ml cubital vein blood was collected each time right before pyragrel infusion on Day 2 to Day 5. In the 3×3 crossover study (Part IV), 12 subjects were randomized to receive each of the three dosing groups (60, 120, or 240 mg) of pyragrel (diluted with 250 ml saline, 3 h infusion) per period, with a 7-day washout period between doses. Sixteen blood samples were collected as follows: before drug administration (0 h), 0.17, 0.35, 0.5, 1, 2, 3, 3.25, 3.5, 4, 5, 7, 9, 11, 15, and 24 h after the initiation of the infusion at each period. In the prolonged infusion study (Part V), four subjects received continuous 24 h infusion of pyragrel 360 mg (diluted in 600 ml saline); 19 blood samples were collected as follows: before drug administration (0 h), 0.25, 0.5, 1, 2, 4, 8, 12, 16, 20 (nine samples collected during administration), 24.25, 24.5, 25, 26, 28, 30, 32, 36, and 48 h after the initiation of the infusion (details shown in Figure 1 ). In all five cohorts, 5 ml of cubital vein blood was collected with a sodium heparin anticoagulant tube and centrifuged at 3000 r·min^-1. Each plasma sample was divided into two aliquots and stored at −20°C until further bioanalysis. […] Briefly, 10 µl of the extract drug from […] was injected onto a Zorbax EcLipse XDB C18 column (2.1 mm × 150 mm, 5 μm) (Agilent, USA) using isocratic elution with a mobile phase composed of methanol, water, and formic acid (65:35:0.1, v/v/v). Determination of the analytes was achieved by tandem-mass spectrometry with positive electrospray ionization.
(§2) Pharmacokinetic parameters were calculated using the noncompartmental model (NCA module), WinNonlin 6.1 (Pharsight Corporation, Mountain View, CA, USA). Statistical analysis was performed with SPSS 18. The actual dosing and sampling times were utilized in the analysis. Pharmacokinetic parameters were summarized by dose regimens using descriptive statistics, including n, mean, and the coefficient of variation (CV). For Tmax, only n, min, median, and max were reported.

[2] = Part I single-ascending-dose plasma pharmacokinetics (HPLC-MS/MS, noncompartmental); settings: for Pharmacokinetic process over the dose range: 30–300 mg dose range
Experimental: as §1, §2

[3] = Part IV urinary excretion of pyragrel and four metabolites; settings: for Cumulative urinary drug recovery (normalized to pyragrel) within 24 h: n=12, Mean ± SD; for Total cumulative urine excreted amounts over 24 h: 12 subjects; for Accumulative urinary excretion rate: over 24 h
Experimental: Urine samples were collected after the initiation of pyragrel infusion as follows in Part IV: 0–3 (3 h infusion period), 3–7, 7–11, 11–15, and 15–24 h after pyragrel administration during each period. […] Production of 11-dehydro-thrombxane B2 (11-D-HTXB2) in urine sample was detected by ELISA method.

[4] = Part I, metabolite in plasma after single 3 h i.v. infusion of pyragrel 30 mg, n=8, mean ± SD
[5] = Part I, metabolite in plasma after single 3 h i.v. infusion of pyragrel 60 mg, n=8, mean ± SD
[6] = Part I, metabolite in plasma after single 3 h i.v. infusion of pyragrel 120 mg, n=8, mean ± SD
[7] = Part I, metabolite in plasma after single 3 h i.v. infusion of pyragrel 180 mg, n=4, mean ± SD
[8] = Part I, metabolite in plasma after single 3 h i.v. infusion of pyragrel 240 mg, n=4, mean ± SD
[9] = Part I, metabolite in plasma after single 3 h i.v. infusion of pyragrel 300 mg, n=4, mean ± SD
[10] = Part I, single 3-h i.v. infusion of pyragrel 30 mg, plasma, n=8, mean ± SD
[11] = Part I, single 3-h i.v. infusion of pyragrel 60 mg, plasma, n=8, mean ± SD
[12] = Part I, single 3-h i.v. infusion of pyragrel 120 mg, plasma, n=8, mean ± SD
[13] = Part I, single 3-h i.v. infusion of pyragrel 180 mg, plasma, n=4, mean ± SD
[14] = Part I, single 3-h i.v. infusion of pyragrel 240 mg, plasma, n=4, mean ± SD
[15] = Part I, single 3-h i.v. infusion of pyragrel 300 mg, plasma, n=4, mean ± SD
[16] = single 3 h infusion of pyragrel 60 mg
[17] = single 3 h infusion of pyragrel 240 mg

COc1cc(CCC(=O)O)ccc1OCc1nc(C)c(C)nc1C [BBS]
AUCINF [1]: 11,533 ± 3,946 h*µg·L^-1
AUClast [1]: 11,500 ± 3,952 h*µg·L^-1
Cl [1]: 34.11 ± 11.36 L/h
Cmax [1]: 566.1 ± 195.0 ng/mL
Tmax [1]: 18.06 ± 4.13 h
Vz [1]: 234.4 ± 89.53 L
t1/2 [1]: 4.74 ± 0.65 h
Pharmacokinetic process over the dose range [2]: linear
AUCINF [2, 4]: 1016.64 ± 206.08 µg·h/L
AUClast [2, 4]: 1006.02 ± 209.31 µg·h/L
Cl [2, 4]: 30.60 ± 6.23 L/h
Cmax [2, 4]: 216.34 ± 48.23 µg/L
Tmax [2, 4]: 3.22 ± 0.36 h
Vz [2, 4]: 252.46 ± 113.75 L
t1/2 [2, 4]: 5.90 ± 2.84 h
AUCINF [2, 5]: 1815.58 ± 430.74 µg·h/L
AUClast [2, 5]: 1802.57 ± 421.18 µg·h/L
Cl [2, 5]: 34.63 ± 7.86 L/h
Cmax [2, 5]: 389.37 ± 90.87 µg/L
Tmax [2, 5]: 3.25 ± 0.13 h
Vz [2, 5]: 377.35 ± 68.16 L
t1/2 [2, 5]: 7.94 ± 2.48 h
AUCINF [2, 6]: 3566.52 ± 1518.01 µg·h/L
AUClast [2, 6]: 3553.23 ± 1512.83 µg·h/L
Cl [2, 6]: 37.91 ± 12.00 L/h
Cmax [2, 6]: 753.36 ± 287.7 µg/L
Tmax [2, 6]: 3.31 ± 0.18 h
Vz [2, 6]: 369.08 ± 168.49 L
t1/2 [2, 6]: 6.89 ± 2.29 h
AUCINF [2, 7]: 6563.91 ± 1179.31 µg·h/L
AUClast [2, 7]: 6542.7 ± 1174.8 µg·h/L
Cl [2, 7]: 28.22 ± 5.92 L/h
Cmax [2, 7]: 1490.69 ± 358.43 µg/L
Tmax [2, 7]: 3.31 ± 0.24 h
Vz [2, 7]: 301.81 ± 76.25 L
t1/2 [2, 7]: 7.41 ± 0.97 h
AUCINF [2, 8]: 8910.06 ± 3388.83 µg·h/L
AUClast [2, 8]: 8843.82 ± 3366.35 µg·h/L
Cl [2, 8]: 29.59 ± 9.55 L/h
Cmax [2, 8]: 1878.22 ± 681.05 µg/L
Tmax [2, 8]: 3.25 ± 0.20 h
Vz [2, 8]: 374.58 ± 119.99 L
t1/2 [2, 8]: 8.81 ± 0.46 h
AUCINF [2, 9]: 10549.78 ± 3061.74 µg·h/L
AUClast [2, 9]: 10466.78 ± 3028.35 µg·h/L
Cl [2, 9]: 30.84 ± 11.23 L/h
Cmax [2, 9]: 2139.28 ± 589.06 µg/L
Tmax [2, 9]: 3.19 ± 0.13 h
Vz [2, 9]: 345.29 ± 120.76 L
t1/2 [2, 9]: 7.85 ± 1.92 h
Cumulative urinary drug recovery (normalized to pyragrel) within 24 h ([3]; single dose of pyragrel 60 mg): 3.90 ± 2.11%
Cumulative urinary drug recovery (normalized to pyragrel) within 24 h ([3]; single dose of pyragrel 120 mg): 1.93 ± 0.85%
Cumulative urinary drug recovery (normalized to pyragrel) within 24 h ([3]; single dose of pyragrel 240 mg): 2.75 ± 0.97%

COc1cc(C=CC(=O)[O-])ccc1OCc1nc(C)c(C)nc1C.[Na+] [Pyragrel, sodium pyragrel]
Plasma concentration remaining, fraction of Cmax ([1]; at 4 h post-infusion): 1/20
AUCINF [1]: 14,995 ± 2,494 h*µg·L^-1
AUClast [1]: 14,984 ± 2,497 h*µg·L^-1
Cl [1]: 24.47 ± 3.75 L/h
Cmax [1]: 861.7 ± 155.1 ng/mL
Tmax [1]: 14.00 ± 7.66 h
Vz [1]: 260.2 ± 144.4 L
t1/2 [1]: 7.05 ± 3.74 h
AUCINF ([1]; listed as pyragrel): 14,994.57 ± 2,493.9 h*µg·L^-1
AUClast ([1]; listed as pyragrel): 14,984.40 ± 2,496.64 h*µg·L^-1
Cmax ([1]; listed as pyragrel): 861.67 ± 155.05 ng/mL
Pharmacokinetic process over the dose range [2]: linear
Tmax ([2]; Part I, across all six dose groups (30-300 mg), 3 h infusion): about 3 h
Plasma concentration remaining, fraction of Cmax ([2]; Part I, at 4 h after initiation of the 3 h infusion): 1/20
AUCINF [2, 10]: 1,051.0 ± 185.8 h*µg·L^-1
AUClast [2, 10]: 1,047.5 ± 182.7 h*µg·L^-1
Cl [2, 10]: 29.26 ± 4.69 L/h
Tmax [2, 10]: 2.75 ± 0.46 h
Vz [2, 10]: 96.16 ± 31.87 L
t1/2 [2, 10]: 2.39 ± 1.03 h
AUCINF [2, 11]: 2,009.4 ± 235.97 h*µg·L^-1
AUClast [2, 11]: 2,003.7 ± 235.9 h*µg·L^-1
Cl [2, 11]: 30.23 ± 3.58 L/h
Cmax [2, 11]: 711.8 ± 100.2 µg/L
Tmax [2, 11]: 2.88 ± 0.35 h
Vz [2, 11]: 203.0 ± 81.47 L
t1/2 [2, 11]: 4.62 ± 1.69 h
AUCINF [2, 12]: 4,300.5 ± 807.5 h*µg·L^-1
AUClast [2, 12]: 4,287.2 ± 812.7 h*µg·L^-1
Cl [2, 12]: 28.76 ± 5.26 L/h
Cmax [2, 12]: 1,435.6 ± 319.5 µg·L^-1
Tmax [2, 12]: 2.88 ± 0.35 h
Vz [2, 12]: 278.0 ± 162.5 L
t1/2 [2, 12]: 6.64 ± 3.53 h
AUCINF [2, 13]: 7,390.5 ± 414.7 h*µg·L^-1
AUClast [2, 13]: 7,376.5 ± 413.0 h*µg·L^-1
Cl [2, 13]: 24.41 ± 1.41 L/h
Cmax [2, 13]: 2,622.5 ± 439.9 µg·L^-1
Tmax [2, 13]: 3.00 ± 0.00 h
Vz [2, 13]: 334.4 ± 110.8 L
t1/2 [2, 13]: 9.64 ± 3.58 h
AUCINF [2, 14]: 9,224.3 ± 2,716.3 h*µg·L^-1
AUClast [2, 14]: 9,194.7 ± 2,703.5 h*µg·L^-1
Cl [2, 14]: 27.50 ± 6.80 L/h
Cmax [2, 14]: 3,144.2 ± 931.2 µg·L^-1
Tmax [2, 14]: 2.75 ± 0.50 h
Vz [2, 14]: 573.6 ± 180.3 L
t1/2 [2, 14]: 14.24 ± 1.66 h
AUCINF [2, 15]: 9,315.3 ± 1,219.1 h*µg·L^-1
AUClast [2, 15]: 9,301.4 ± 1,215.2 h*µg·L^-1
Cl [2, 15]: 32.62 ± 4.29 L/h
Cmax [2, 15]: 3,011.7 ± 303.2 µg·L^-1
Tmax [2, 15]: 2.25 ± 0.50 h
Vz [2, 15]: 454.6 ± 191.4 L
t1/2 [2, 15]: 9.88 ± 4.26 h
Urinary excretion, share of the total drug amount ([3]; Part IV, three dose groups, pyragrel plus metabolites): more than 70%
Total cumulative urine excreted amounts over 24 h [3, 16]: 44.80 mg
Accumulative urinary excretion rate [3, 16]: 74.67%
Total cumulative urine excreted amounts over 24 h ([3]; single 3 h infusion of pyragrel 120 mg): 85.07 mg
Total cumulative urine excreted amounts over 24 h [3, 17]: 175.83 mg
Accumulative urinary excretion rate [3, 17]: 73.26%
Cumulative urinary drug recovery (normalized to pyragrel) within 24 h ([3]; single dose of pyragrel 60 mg): 0.94 ± 0.30%
Cumulative urinary drug recovery (normalized to pyragrel) within 24 h ([3]; single dose of pyragrel 120 mg): 0.67 ± 0.14%
Cumulative urinary drug recovery (normalized to pyragrel) within 24 h ([3]; single dose of pyragrel 240 mg): 0.79 ± 0.28%
